Experimental data: US4530837A, “Peptide derivatives, their preparation process and their pharmaceutical use” (Commissariat a l'Energie Atomique, priority 1982, dated 1985)

How the values were obtained:
[1] = system: hydrochloric acid secretion; assay: hydrochloric acid secretion in anesthetized rats with perfused stomach (Ghosh and Schild, modified by Lai): agonist effect; assay type: in vivo, rat; settings: intravenous injection, male Wistar rats
Method: (§1) For the purpose of these tests, use was made of male Wistar rats weighing 300±25 g. The rats were not allowed to take solid food for 18 hours, but were allowed to drink water freely. They were then anesthesized with urethane (1.25 g/kg) by the intramuscular route. The temperature of the rats was maintained at 34° C. by means of lamps, approximately 60 cm away from them. A polyethylene catheter was introduced into the esophagus up to the level of the cardia and a second catheter for collecting the stomach secretion at the duodenum. After washing the stomach, the latter was continuously perfused with a 0.9% sodium chloride solution, at a flow rate of 1 ml/min, using a peristaltic pump connected to the catheter of the esophagus.
(§2) After a period of stabilizing the system lasting approximately 90 minutes after the operation, the compounds which it was wished to study were injected intravenously into the vein of the penis and the gastric secretion was collected by fractions taken every 20 minutes, the interval between these injections being min 90 minutes. The acidity of the sample fractions was dosed by means of a 0.01N sodium solution at the phenolphthalein colour change.

[2] = system: hydrochloric acid secretion stimulated by histamine; assay: inhibition of secretion plateau stimulated by histamine in anesthetized perfused-stomach rats; assay type: in vivo, rat; settings: 150 nmol/kg i.v., histamine 13.5 μmol/kg/h
Method: as §1, §2
In this case, use is made of the same operating procedure as in the second group of experiments, by stimulating the secretion by histamine. In this case, a higher histamine dose (13.5 μmol/kg/h) is injected.

| Compound | dose from which activity on hydrochloric acid secretion is maximum [1] [nmol/kg] | duration of inhibition of the histamine response [2] | inhibition of the histamine response (intensity) [2] | maximum inhibition percentage (mean ± ESM) ([2]; group of 4 rats) [%] |
| --- | --- | --- | --- | --- |
| CSCC[C@H](NC(=O)[C@H](Cc1c[nH]c2ccccc12)NC(=O)CCNC(=O)OC(C)(C)C)C(=O)N[C@@H](CC(=O)O)C(=O)N[C@@H](Cc1ccccc1)C(N)=O [pentagastrin, Boc-βAla-Trp-Met-Asp-Phe-NH2] | ≥ 20 |  |  |  |
| CN/C(=N\CCSCc1nc[nH]c1C)NC#N [cimetidine] |  | approximately 3 h | approximately 55% | 54.4±2.7 |
